# From patent US20130210034A1, “COMPLEX PHOSPHOPROTEIN ACTIVATION PROFILES” (BECKMAN COULTER, INC., priority 2005, published 2013)
# “And” between values parts separate entries of the source, which are not always exact repeats. Equal values may be shown once.
# What was measured:
# Format in all cases: cell-based, human
# pS6 [1] = assay: Phosphoprotein kinetic profiles in bone marrow samples from healthy donors
# Description: (§1) Phosphoprotein kinetic profiles were analyzed in bone marrow aspiration samples from nine healthy, adult donors (i.e., normal bone marrow or NBM) and from five AML patients. Samples from healthy donors included 5 males and 4 females, ranging in age from 26 to 49 years. Approximately 10 to 20 mL of bone marrow (BM) samples were collected from the posterior iliac crest of the volunteers using IRB approved protocols. The BM samples were filtered using a 40 μm Nylon cell strainer to remove marrow particles and the white blood cell concentration determined using a blood analyzer. […] The samples were immediately used for subsequent experimentation.
# (§2) To assess the signal transduction response after growth factor simulation, 100 to 200 μL of processed samples including about 2×10^6 WBC/100 μL were added to tubes and incubated at 37° C. for 30 minutes. For inhibition experiments, cells were incubated with 100 μM U0126, 1 μg/mL rapamycin, or both for at least 20 minutes prior to cytokine addition and in all cases for 30 min prior to formaldehyde addition. […] After stimulation the cells were immediately fixed by the addition of formaldehyde to a final concentration of 4% v/v and incubated for 10 minutes at room temperature. Following fixation, red blood cells were lysed by the addition of TRITON-X/PBS solution (0.1% v/v final concentration Triton X-100) supplemented with a 1 x phosphatase inhibitor cocktail (PIC; final concentrations: 0.2 mM sodium orthovanadate, 2 mM sodium pyrophosphate decahydrate, 2 mM [3-glycerophosphate, and 10 mM sodium fluoride) and incubation at 37° C. for 20 minutes. The incubated solution was chilled by the addition of ice-cold Wash Buffer (final concentration 1×PBS and either 4% bovine serum albumin (BSA) or 4% heat-inactivated fetal bovine serum (FBS), supplemented with 1×PIC), and the samples were centrifuged at 300 g for 6 minutes at 4° C.). If the lysis was incomplete, samples were retreated with 0.1% Triton X-100 at 37° C. for 10 to 20 minutes. After removal of the supernatant, cells were washed twice in ice-cold Wash Buffer supplemented with 1×PIC and permeabilized by the addition of pre-chilled 80% methanol while simultaneously vortexing the tube and incubated on ice for 10 minutes. Methanol was removed by centrifugation, the pellet was washed with ice-cold 1×PBS, and non-specific binding was blocked by the addition of ice-cold Wash Buffer supplemented with 1×PIC and incubation at 4° C. for a minimum of 30 minutes.
# (§3) To stain cells with fluorescent conjugated monoclonal antibodies, the incubated solution was centrifuged to remove the supernatant and the pellet was incubated for 60 minutes at 4° C. with an antibody staining solution including 0.25 μg to 0.50 μg of pS6-Pacific Blue, pERK-ALEXA 488, pSTAT5-ALEXA 647, CD34-PE, CD45-PerCP, and CD117-PC7. Samples were washed three times with ice-cold Wash Buffer supplemented with 1×PIC, resuspended in 0.5 mL ice-cold Wash Buffer supplemented with 1×PIC including 0.5 μg/mL DAPI, and analyzed by flow cytometryusing a BD LSR II Flow Cytometer, equipped with a High Throughput Sampler (HTS).
# (§4) First, doublets, aggregates, and debris were excluded by gating on single cell events in the SSC-Area versus SSC-Height histogram. Then, in events passing through this gate, debris near the origin of the FSC-Area versus SSC-Area plot (gray in FIG. 4A) was excluded by drawing a gate around an area encompassing, primarily, lymphocytes, monocytes, and granulocytes (LMG, black in FIG. 4A). Next, in cells passing through the LMG gate, the blast region (circle in FIG. 4B) was identified in the CD45 versus SSC-Area histogram (FIG. 4B). From this blast population, CD34+, CD117+ cells were identified in the CD34 versus CD117 plot (boxed area in FIG. 4C).
# pERK [2] = assay: as above
# Description: as §1, §2, §3, §4
# pSTAT5 [3] = assay: as above; details: CD34^+, CD117^+ cells, healthy donor samples
# Description: as §1, §2, §3, §4
# pS6 [4] = assay: Phosphoprotein kinetic profiles in CD34+, CD117+ cells of AML bone marrow samples; details: for pS6 Amp (peak amplitude of fold stimulation) / pS6 RI (response interval): CD34^+, CD117^+ cells; for Frequency, pS6: frequency of positive-stained cells; for Positives/Negatives, pS6: ratio of positive- to negative-stained cells
# Description: as §2, §3
# (§5) First, doublets, aggregates, and debris were excluded by gating on single cell events in the SSC-Area versus SSC-Height histogram. Then, in events passing through this gate, debris near the origin of the FSC-Area versus SSC-Area plot (gray in FIG. 4A) was excluded by drawing a gate around an area encompassing, primarily, lymphocytes, monocytes, and granulocytes (LMG, black in FIG. 4A). Next, in cells passing through the LMG gate, the blast region (circle in FIG. 4B) was identified in the CD45 versus SSC-Area histogram (FIG. 4B). From this blast population, CD34+, CD117+ cells were identified in the CD34 versus CD117 plot (boxed area in FIG. 4C). Finally, these cells were further analyzed for cytokine-mediated increases in phosphorylation by constructing gates in the single parameter histograms (for positively and negatively stained events, i.e., for the phosphorylated and non-phosphorylated forms, respectively, of each protein) for pS6 (FIGS. 4D and 4G), pERK (FIGS. 4E and 4H), and pSTAT5 (FIGS. 4F and 4I). […] The dotted lines in each of these histograms represent unstimulated cells at t=0 min. FCS files were processed with WinList 6.0 3D (Verity Software House).
# pERK [5] = assay: as above; details: for pERK Amp (peak amplitude of fold stimulation) / pERK RI (response interval): CD34^+, CD117^+ cells; for Frequency, pERK: frequency of positive-stained cells; for Positives/Negatives, pERK: ratio of positive- to negative-stained cells
# Description: as §2, §3, §5
# pSTAT5 [6] = assay: as above
# Description: as §2, §3, §5
# [7] = CD34^+, CD117^+ cells, healthy donor samples
# [8] = SCF-stimulated, healthy donor samples
# [9] = SCF-stimulated, mean of healthy donors 6 to 9
substance,measurement,setting,value
Stem Cell Factor [SCF],pS6 Amp (peak amplitude of fold stimulation),pS6 [1]; [7],18 ± 5.1
same,pS6 RI (response interval),pS6 [1]; [7],28 min and 28 ± 1.2 min
same,"frequency of positively stained cells at its maximum, pS6",pS6 [1]; [8],26%
same,"Fold Stimulation, pS6",pS6 [1]; [9],10
same,"Frequency, pS6",pS6 [1]; [9],26
same,"MFI, pS6",pS6 [1]; [9],1040
same,"Positives/Negatives, pS6",pS6 [1]; [9],0.44
same,pERK Amp (peak amplitude of fold stimulation),pERK [2]; [7],120 and 120 ± 28
same,pERK RI (response interval),pERK [2]; [7],8.7 min and 8.7 ± 0.3 min
same,"frequency of positively stained cells at its maximum, pERK",pERK [2]; [8],81%
same,"Fold Stimulation, pERK",pERK [2]; [9],53
same,"Frequency, pERK",pERK [2]; [9],81
same,"MFI, pERK",pERK [2]; [9],3700
same,"Positives/Negatives, pERK",pERK [2]; [9],4.9
same,pSTAT5 Amp (peak amplitude of fold stimulation),pSTAT5 [3],0.8 ± 0.2
same,pSTAT5 RI (response interval),pSTAT5 [3],Variable
same,pS6 Amp (peak amplitude of fold stimulation),pS6 [4]; AML1 sample (Example 6),1100
same,pS6 RI (response interval),pS6 [4]; AML1 sample (Example 6),30 min
same,pS6 Amp (peak amplitude of fold stimulation),pS6 [4]; AML2 sample (Example 6),620
same,pS6 RI (response interval),pS6 [4]; AML2 sample (Example 6),30 min
same,"Fold Stimulation, AML to NBM ratio (pS6)AML1/(pS6)D6-9",pS6 [4]; SCF-stimulated,110
same,"Fold Stimulation, AML to NBM ratio (pS6)AML2/(pS6)D6-9",pS6 [4]; SCF-stimulated,62
same,"Frequency, AML to NBM ratio (pS6)AML1/(pS6)D6-9",pS6 [4]; SCF-stimulated,3.7
same,"Frequency, AML to NBM ratio (pS6)AML2/(pS6)D6-9",pS6 [4]; SCF-stimulated,3.7
same,"MFI, AML to NBM ratio (pS6)AML1/(pS6)D6-9",pS6 [4]; SCF-stimulated,3.0
same,"MFI, AML to NBM ratio (pS6)AML2/(pS6)D6-9",pS6 [4]; SCF-stimulated,2.3
same,"Positives/Negatives, AML to NBM ratio (pS6)AML1/(pS6)D6-9",pS6 [4]; SCF-stimulated,80
same,"Positives/Negatives, AML to NBM ratio (pS6)AML2/(pS6)D6-9",pS6 [4]; SCF-stimulated,52
same,"Fold Stimulation, pS6","pS6 [4]; SCF-stimulated, AML1",1100
same,"MFI, pS6","pS6 [4]; SCF-stimulated, AML1",3100
same,"Frequency, pS6","pS6 [4]; SCF-stimulated, AML1",96
same,"Positives/Negatives, pS6","pS6 [4]; SCF-stimulated, AML1",35
same,"Fold Stimulation, pS6","pS6 [4]; SCF-stimulated, AML2",620
same,"MFI, pS6","pS6 [4]; SCF-stimulated, AML2",2400
same,"Frequency, pS6","pS6 [4]; SCF-stimulated, AML2",97
same,"Positives/Negatives, pS6","pS6 [4]; SCF-stimulated, AML2",23
same,"frequency of positively stained cells at its maximum, pS6","pS6 [4]; SCF-stimulated, AML samples",~97%
same,pERK Amp (peak amplitude of fold stimulation),pERK [5]; AML1 sample (Example 6),1600
same,pERK RI (response interval),pERK [5]; AML1 sample (Example 6),30 min
same,pERK Amp (peak amplitude of fold stimulation),pERK [5]; AML2 sample (Example 6),1300
same,pERK RI (response interval),pERK [5]; AML2 sample (Example 6),20 min
same,"Fold Stimulation, AML to NBM ratio (pERK)AML1/(pERK)D6-9",pERK [5]; SCF-stimulated,30
same,"Fold Stimulation, AML to NBM ratio (pERK)AML2/(pERK)D6-9",pERK [5]; SCF-stimulated,25
same,"Frequency, AML to NBM ratio (pERK)AML1/(pERK)D6-9",pERK [5]; SCF-stimulated,1.1
same,"Frequency, AML to NBM ratio (pERK)AML2/(pERK)D6-9",pERK [5]; SCF-stimulated,1.1
same,"MFI, AML to NBM ratio (pERK)AML1/(pERK)D6-9",pERK [5]; SCF-stimulated,0.41
same,"MFI, AML to NBM ratio (pERK)AML2/(pERK)D6-9",pERK [5]; SCF-stimulated,0.35
same,"Positives/Negatives, AML to NBM ratio (pERK)AML1/(pERK)D6-9",pERK [5]; SCF-stimulated,2.0
same,"Positives/Negatives, AML to NBM ratio (pERK)AML2/(pERK)D6-9",pERK [5]; SCF-stimulated,1.5
same,"Fold Stimulation, pERK","pERK [5]; SCF-stimulated, AML1",1600
same,"MFI, pERK","pERK [5]; SCF-stimulated, AML1",1500
same,"Frequency, pERK","pERK [5]; SCF-stimulated, AML1",88
same,"Positives/Negatives, pERK","pERK [5]; SCF-stimulated, AML1",10
same,"Fold Stimulation, pERK","pERK [5]; SCF-stimulated, AML2",1300
same,"MFI, pERK","pERK [5]; SCF-stimulated, AML2",1300
same,"Frequency, pERK","pERK [5]; SCF-stimulated, AML2",90
same,"Positives/Negatives, pERK","pERK [5]; SCF-stimulated, AML2",7.4
same,"frequency of positively stained cells at its maximum, pERK","pERK [5]; SCF-stimulated, AML samples",approximately 90%
same,"pERK response, fold greater than in healthy donor samples","pERK [5]; SCF: AML1 and AML2, FL: AML1",approximately 10 fold
same,pSTAT5 Amp (peak amplitude of fold stimulation),pSTAT5 [6]; AML1 sample (Example 6),32
same,pSTAT5 Amp (peak amplitude of fold stimulation),pSTAT5 [6]; AML2 sample (Example 6),2
same,pSTAT5 RI (response interval),pSTAT5 [6]; AML2 sample (Example 6),6 min
